Source: patent US20040220089A1, “Ophthalmic preparation containing glycoprotein” (priority 2001, published 2004)

Tested on: Madin-Darby Canine Kidney (MDCK) cells
Experiment: in vitro transepithelial permeability assay (fluorescein, Tchao) for eye irritation potential
Conditions: MDCK monolayer, 30 minutes at 37° C., Na-fluorescein permeability; SDS=100% response; less than 20% considered non-irritating
From the text: The Tchao technique is described as a method of determining potential eye irritation of a substance by correlating damage to a mono-layer of Madin-Darby Canine Kidney (MDCK) cells with damage to corneal epithelial cells. The amount of fluorescein passing through the cell mono-layer is a function of permeability of the cell mono-layer. Higher cell mono-layer permeability indicates greater damage to the cell junctions from application of a test solution thereto, whereas lower cell mono-layer permeability indicates less damage to the cell junctions from application of the test solution. […]
Test: Each insert is rinsed with Hanks Balanced Salt Solution (HBSS) 3×1 ml using a 10 ml syringe without needle. […] After incubation at room temperature for 30 minutes, the inserts are sequentially removed from the wells, and the amount of Na-fluorescein in each of the wells is measured in a CytoFluor 2300, using 540 nm excitation and 590 nm emission. […] It has been determined that the assay can measure the effect of 50 μg/ml SDS, and the effect on the permeability of the monolayer is linearly proportional to the concentrations of SDS from 50-250 μg/ml. Fluorescence units (arbitrary) of each test solution is plotted against test solutions.
Interpretation of results: The results are expressed as % of SDS response, and comparisons with the HBSS response. […]

## CCCCCCCCCCCCOS(=O)(=O)[O-].[Na+] [SDS, sodium dodecyl sulfate]
  RESPONSE (percentage of SDS response): 100%
